Measurements from patent US6919094B1, “Composition of medicine for treating headache disease and process of preparation and uses thereof” (priority 2000, dated 2005).

Columns and labels:
[1] = test system: rat platelet; experiment: rat platelet aggregation after gastric administration; type: in vivo; details: 2.7 × 10-2 g/kg PO, ADP 2.8 μM
Procedure: 1.1 The influence on the rabbit platelet's aggregative character: Rabbit platelet plasma was prepared according to the […] method. […] The mixture was centrifuged on the speed of 1000 rpm for 5 minutes then at the speed of 3000 rpm for 10 minutes. The blood plasma was separated into the platelet-rich plasma and the platelet-absent plasma. […] 1.5 hour after the administration, the blood from the abdominal aorta was collected on the condition of anesthesia by ether. The platelet plasma was prepared by the same method mentioned above, and the PLT aggregation experiment performed by the same machine with a different ADP concentrate of 2.8 μM.

[2] = test system: rabbit platelet; experiment: rabbit platelet aggregation induced by ADP (Born's method); type: cell-based; details: rabbit platelet-rich plasma, ADP 12 μM, 5th minute, 0.27 mg/ml
Procedure: 1.1 The influence on the rabbit platelet's aggregative character: Rabbit platelet plasma was prepared according to the Csalay's method. Lucid rabbit's blood was collected by carotid arterial cannula, then the blood was mingled with 3.8% sodium citrate in proportion of 9:1 to anticoagulate. The mixture was centrifuged on the speed of 1000 rpm for 5 minutes then at the speed of 3000 rpm for 10 minutes. The blood plasma was separated into the platelet-rich plasma and the platelet-absent plasma. When conducting the measurement, the platelet aggregation percent was regulated to 50-60%. The platelet aggregation experiment was performed according to the Born's method by the PPP autobalance platelet-aggregation-machine (type SPA-3), keeping the concentrate of ADP(the aggregation inducer) at 12 μM, then collecting the data and comparing the aggregation percents between the treatment group and the control group at the 5th minute.

[3] = test system: male Wistar rats; experiment: rat's experimental thrombosis (extracorporeal circulation); type: in vivo; details: 0.05 g/kg iv
Procedure: 1.3 The influence on the rat's experimental thrombosis: Male Wistar rats weighing 270-370 g were chosen to be anaesthetized by belly injection of sodium pentobarbital on the dosage of 50 mg/kg, then the rats were fixed at the supine position and the right common carotid artery and the left external jugular vein were detached. A polyvinyl pipe of 19.5 cm long with the inside diameter of 1.5 mm embedded in a 5.0 cm-long type 4 suture and filled with the solution of heparin and normal saline (25 μ/kg) was inserted into the right common carotid artery one end and the left external jugular vein the other end. […] 15 minutes later, the pipe was closed, the suture taken out and the greenweight measured.

[4] = test system: spontaneous hypertension rat (SHR); experiment: BP of the spontaneous hypertension rat; type: in vivo; details: 2 × 10-2 g/kg PO
[5] = test system: female NIH mice; experiment: mouse hot-plate method pain threshold; type: in vivo; details: 1.5 × 10-2 g/kg ip
Procedure: 2.1 The influence on the mouse's reaction to the heat: The experiment referred to the mouse hot-plate method: female NIH mice weighing 18-22 g were put on the type CS501 ultra thermostat's metallic plate, on which the temperature was 55.0±0.5° C. The action of sucking the postpedes and jumping were concerned as the indexes to the pain caused by the heat and the shortest time when the mouse shown the indexes was defined as the pain threshold. The sensitive mice whose pain threshold were shorter than 30 s were chosen and divided into 4 groups according to their pain threshold, each group including 10 mice. […] If the threshold was beyond 60 s, it would be recorded as 60 s. […] The group on the dosage of 5.0 g/kg improved the pain threshold by 148.74% (p<0.001), and the effect lasted 5 hours.

[6] = test system: SD white rats; experiment: rat's tail-whipping method pain threshold; type: in vivo; details: 1.5 × 10-2 g/kg PO
Procedure: 2.2 The influence on the rat's reaction to the heat. The experiment referred to the rat's tail-whipping method: SD white rats weighing 180-220 g were chosen and the distal ⅓ of their tails were dipped into hot water in which the temperature was regulated to 55.0±0.5° C. by the CS501 ultra thermostat. The tail's whipping out of the water was defined to be the index of pain. The rats were divided equably into 5 groups according to the pain threshold and each group had 9 rats. […] (p<0.05), 64.52% (P<0.05), the duration of effect was 1 h, 4 h.

[7] = test system: female NIH mice; experiment: mouse's body-twisting method (ethanoic acid); type: in vivo; details: 0.10 g/kg ip, 0.8% ethanoic acid, 20 minutes
Procedure: The experiment method was the mouse's body-twisting method. Female NIH mice weighing 18-22 g were divided into groups at random and each group had 10 mice. […] The number of the mice's body twisting in the following 20 minutes were recorded as the index.

[8] = test system: female NIH mice; experiment: mouse electrostimulation pain threshold; type: in vivo; details: 0.05 g/kg ip
From the text: 2.3 The influence on the electrostimulation of mouse: The experiment method adopted was to simulate the mouse's vola with the electricity. Female NIH mice weighing 18-22 g were chosen and put on the conductive copper-wire plate of the YSD-4 multipurpose apparatus's zoopery box. The electricity was switched on and the time when the mouse […] chosen as the index of pain threshold. The sensitive mice whose pain thresholds were shorter than 15 s were chosen to do the experiment.

[9] = test system: Kunming mice; experiment: mouse's spontaneous activity; type: in vivo; details: 5 × 10-2 g/kg PO
From the text: Kunming mice weighing 18-22 g were chosen and divided into groups at random. Each group was made up of 10 mice.

SMILES: CC(=O)Oc1ccccc1C(=O)O [Aspirin]
- platelet aggregation percent (max) [1]: 31.06 ± 3.80 %
- aggregation percent [2]: 39.94 ± 2.05 %
- greenweight of thrombus [3]: 18.28 ± 1.28 mg

SMILES: C[C@H](CS)C(=O)N1CCC[C@H]1C(=O)O [Captopril]
- blood pressure ([4]; 1/2 week): 113.5 ± 3.9
- blood pressure ([4]; 1 week): 138.2 ± 3.6
- blood pressure ([4]; 2 week): 142.3 ± 1.8
- blood pressure ([4]; 3 week): 140.0 ± 2.0
- blood pressure ([4]; before administration): 170.5 ± 2.9

SMILES: CN1CC[C@]23c4c5ccc(O)c4O[C@H]2[C@@H](O)C=C[C@H]3[C@H]1C5.Cl [Morphine hydrochloride]
- pain threshold (hot-plate method) ([5]; 1/2 h after administration, cut-off 60 s): >60 s
- pain threshold (hot-plate method) ([5]; 1 h after administration, cut-off 60 s): >60 s
- pain threshold (hot-plate method) ([5]; 3 h after administration, cut-off 60 s): >60 s
- pain threshold (hot-plate method) ([5]; 5 h after administration, cut-off 60 s): >60 s
- pain threshold (hot-plate method) ([5]; before administration): 22.5 ± 2.4 s
- pain threshold (tail-whipping method) ([6]; 1/2 h after administration): 9.2 ± 0.8
- pain threshold (tail-whipping method) ([6]; 1 h after administration): 5.7 ± 0.4
- pain threshold (tail-whipping method) ([6]; 2 h after administration): 4.5 ± 0.4
- pain threshold (tail-whipping method) ([6]; 4 h after administration): 3.3 ± 0.4
- pain threshold (tail-whipping method) ([6]; before administration): 3.2 ± 0.3

SMILES: Cc1c(N(C)C)c(=O)n(-c2ccccc2)n1C [aminopyrine]
- twist times [7]: 2.8 ± 1.3
- pain threshold in the electrostimulation experiment ([8]; after administration): 21.3 ± 5.5 s
- pain threshold in the electrostimulation experiment ([8]; before administration): 4.8 ± 1.0 s

SMILES: COc1cc2c(cc1OC)[C@@H]1Cc3ccc(OC)c(OC)c3CN1CC2 [tetrahydropalmatine]
- Amount of spontaneous activity [9]: 24.3 ± 4.3
